The test has as its target Tie2 (Homo sapiens, UniProt Q02763). Briefly: Tie-2-Kinase HTRF-Assay without kinase preactivation. The format is biochemical. Also on record: fusion protein of GST and the intracellular domains of Tie-2; GST; made in house; host or cells: insect cells (Hi-5). To be noted: GST-Tie-2 intracellular domains, 10 μM ATP. The text has this: Tie2-inhibitory activity of compounds of the present invention was quantified employing two Tie2 HTRF assay as described in the following paragraphs.
A recombinant fusion protein of GST and the intracellular domains of Tie-2, expressed in insect cells (Hi-5) and purified by Glutathion-Sepharose affinity chromatography was used as kinase. Alternatively, commercially available GST-Tie2-fusion protein (Upstate Biotechnology, Dundee, Scotland) can be used As substrate for the kinase reaction the biotinylated peptide biotin-Ahx-EPKDDAYPLYSDFG (C-terminus in amid form) was used which can be purchased e.g. from the company Biosynthan GmbH (Berlin-Buch, Germany). Detection of phosphorylated product is achieved specifically by a trimeric detection complex consisting of the phosphorylated substrate, streptavidin-XLent (SA-XLent) which binds to biotin, and Europium Cryptate-labeled anti-phosphotyrosine antibody PT66 which binds to phosphorylated tyrosine.
Tie-2 (3.5 ng/measurement point) was incubated for 60 min at 22° C. in the presence of 10 μM adenosine-tri-phosphate (ATP) and 1 μM substrate peptide (biotin-Ahx-EPKDDAYPLYSDFG-NH2) with different concentrations of test compounds (0 μM and concentrations in the range 0.001-20 μM) in 5 μl assay buffer [50 mM Hepes/NaOH pH 7, 10 mM MgCl2, 0.5 mM MnCl2, 1.0 mM dithiothreitol, 0.01% NP40, protease inhibitor mixture (“Complete w/o EDTA” from Roche, 1 tablet per 2.5 ml), 1% (v/v) dimethylsulfoxide]. The reaction was stopped by the addition of 5 μl of an aqueous buffer (25 mM Hepes/NaOH pH 7.5, 0.28% (w/v) bovine serum albumin) containing EDTA (90 mM) and the HTRF (Homogeneous Time Resolved Fluorescence) detection reagents streptavidine-XLent (0.2 μM, from Cis Biointernational, Marcoule, France) and PT66-Eu-Chelate (0.3 ng/μl; a europium-chelate labelled anti-phospho-tyrosine antibody from Perkin Elmer).
The resulting mixture was incubated 1 h at 22° C. to allow the binding of the biotinylated phosphorylated peptide to the streptavidine-XLent and the PT66-Eu-Chelate. Subsequently the amount of phosphorylated substrate peptide was evaluated by measurement of the resonance energy transfer from the PT66-Eu-Chelate to the streptavidine-XLent. Therefore, the fluorescence emissions at 620 nm and 665 nm after excitation at 350 nm was measured in a HTRF reader, e.g. a Rubystar (BMG Labtechnologies, Offenburg, Germany) or a Viewlux (Perkin-Elmer). The ratio of the emissions at 665 nm and at […] was taken as the measure for the amount of phosphorylated substrate peptide. The data were normalised (enzyme reaction without inhibitor=0% inhibition, all other assay components but no enzyme=100% inhibition) and IC50 values were calculated by a 4 parameter fit using an inhouse software.
For orientation: In TR-FRET formats the signal depends on donor and acceptor labels being close together.

Tie2, sequence (Q02763 770-1124 limits assumed, species assumed): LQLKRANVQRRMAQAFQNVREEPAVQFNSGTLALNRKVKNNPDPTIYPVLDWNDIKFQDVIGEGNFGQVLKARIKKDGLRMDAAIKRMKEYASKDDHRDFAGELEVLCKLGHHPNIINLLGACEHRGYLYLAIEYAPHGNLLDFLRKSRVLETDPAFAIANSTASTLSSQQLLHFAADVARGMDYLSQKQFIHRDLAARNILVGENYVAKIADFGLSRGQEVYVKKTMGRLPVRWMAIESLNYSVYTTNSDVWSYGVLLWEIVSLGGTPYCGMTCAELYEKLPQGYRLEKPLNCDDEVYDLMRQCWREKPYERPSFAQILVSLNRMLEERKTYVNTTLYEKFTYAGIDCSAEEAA

For orientation: IC50 means the concentration that inhibits the measured activity by half. Lower therefore signals greater potency in that assay. `CN1CCN(Cc2ccc(NC(=O)Nc3ccc(-c4cncc5c4cnn5C)cc3F)cc2C(F)(F)F)CC1` [Example 13.6, 1-[2-Fluoro-4-(1-methyl-1H-pyrazolo[3,4-c]pyridin-4-yl)-phenyl]-3-[4-(4-methyl-piperazin-1-ylmethyl)-3-trifluoromethyl-phenyl]-urea] came in with an IC50 below 501 nM.
Next, `CN(C)c1ccc(C(F)(F)F)cc1NC(=O)Nc1ccc(-c2cncc3c2cnn3C)cc1` [Example 13.11, 1-(2-Dimethylamino-5-trifluoromethyl-phenyl)-3-[4-(1-methyl-1H-pyrazolo[3,4-c]pyridin-4-yl)-phenyl]-urea]: below 501 nM; `CN(C)C1CCN(c2ccc(C(F)(F)F)cc2NC(=O)Nc2ccc(-c3cncc4c3cnn4C)cc2)C1` (stereo not shown) [Example 13.12, 1-[2-(3-Dimethylamino-pyrrolidin-1-yl)-5-trifluoromethyl-phenyl]-3-[4-(1-methyl-1H-pyrazolo[3,4-c]pyridin-4-yl)-phenyl]-urea]: below 501 nM; `CN(C)CCN(C)c1ccc(C(F)(F)F)cc1NC(=O)Nc1ccc(-c2cncc3c2cnn3C)cc1` [Example 13.13, 1-{2-[(2-Dimethylamino-ethyl)-methyl-amino]-5-trifluoromethyl-phenyl}-3-[4-(1-methyl-1H-pyrazolo[3,4-c]pyridin-4-yl)-phenyl]-urea]: below 501 nM.
In turn, `Cn1nc(C(C)(C)C)cc1NC(=O)Nc1ccc(-c2cncc3c2cnn3C)cc1` [Example 14.3, 1-(5-tert-Butyl-2-methyl-2H-pyrazol-3-yl)-3-[4-(1-methyl-1H-pyrazolo[3,4-c]pyridin-4-yl)-phenyl]-urea] came in with an IC50 below 501 nM.
With `Cn1ncc2c(-c3ccc(NC(=O)Nc4cc(C(F)(F)F)ccn4)c(F)c3)cncc21` [Example 14.5, 1-[2-Fluoro-4-(1-methyl-1H-pyrazolo[3,4-c]pyridin-4-yl)-phenyl]-3-(4-trifluoromethyl-pyridin-2-yl)-urea] the figure was below 501 nM; with `CC(C)c1cc(NC(=O)Nc2ccc(-c3cncc4c3cnn4C)cc2)n(-c2cccc(F)c2)n1` [Example 15.1, 1-[2-(3-Fluoro-phenyl)-5-isopropyl-2H-pyrazol-3-yl]-3-[4-(1-methyl-1H-pyrazolo[3,4-c]pyridin-4-yl)-phenyl]-urea], below 501 nM; with `CC(C)c1cc(NC(=O)Nc2ccc(-c3cncc4c3cnn4C)cc2F)n(-c2cccc(F)c2)n1` [Example 15.2, 1-[2-Fluoro-4-(1-methyl-1H-pyrazolo[3,4-c]pyridin-4-yl)-phenyl]-3-[2-(3-fluoro-phenyl)-5-isopropyl-2H-pyrazol-3-yl]-urea], below 501 nM.
Regarding `COc1cccc(-n2nc(C(C)(C)C)cc2NC(=O)Nc2ccc(-c3cncc4c3cnn4C)cc2)c1` [Example 15.5, 1-[5-tert-Butyl-2-(3-methoxy-phenyl)-2H-pyrazol-3-yl]-3-[4-(1-methyl-1H-pyrazolo[3,4-c]pyridin-4-yl)-phenyl]-urea], the IC50 was below 501 nM.
Next, `Cn1ncc2c(-c3ccc(NC(=O)Nc4cc(C(C)(C)C)nn4-c4ccc(F)cc4)cc3)cncc21` [Example 15.7, 1-[5-tert-Butyl-2-(4-fluoro-phenyl)-2H-pyrazol-3-yl]-3-[4-(1-methyl-1H-pyrazolo[3,4-c]pyridin-4-yl)-phenyl]-urea]: below 501 nM; `Cn1ncc2c(-c3ccc(NC(=O)Nc4cc(C(C)(C)C)nn4-c4ccncc4)cc3)cncc21` [Example 15.10, 1-(5-tert-Butyl-2-pyridin-4-yl-2H-pyrazol-3-yl)-3-[4-(1-methyl-1H-pyrazolo[3,4-c]pyridin-4-yl)-phenyl]-urea]: below 501 nM.
`Cn1ncc2c(-c3ccc(NC(=O)Nc4cc(C(C)(C)C)nn4-c4cncc(F)c4)cc3)cncc21` [Example 15.12, 1-[5-tert-Butyl-2-(5-fluoro-pyridin-3-yl)-2H-pyrazol-3-yl]-3-[4-(1-methyl-1H-pyrazolo[3,4-c]pyridin-4-yl)-phenyl]-urea] gave an IC50 below 501 nM.
Next, `Cn1ncc2c(-c3ccc(NC(=O)Nc4cc(C(C)(C)C)nn4-c4cncc(F)c4)c(F)c3)cncc21` [Example 15.13, 1-[5-tert-Butyl-2-(5-fluoro-pyridin-3-yl)-2H-pyrazol-3-yl]-3-[2-fluoro-4-(1-methyl-1H-pyrazolo[3,4-c]pyridin-4-yl)-phenyl]-urea]: below 501 nM.
